Where a name gives a salt, the structure may show the parent alone.
Experiments:
[1] = molecular target: T1, dopamine receptors (^3 H-NPA binding sites) (Rattus norvegicus, UniProt P61169); assay: In vitro inhibition of ^3 H-NPA binding to rat striatal homogenate; conditions: for reversal of inhibition of ^3 H-NPA binding by washing of membranes: FIG. 8
[2] = molecular target: T1, dopamine receptors (^3 H-NPA binding sites)
[3] = system: dopamine receptors; assay: Apomorphine-induced climbing in mice (climbing index); format: in vivo; conditions: for effect on apomorphine climbing: 10 mg/kg s.c.; for effect on apomorphine climbing index: apomorphine 1.0 mg/kg s.c.
Method: Climbing behavior was measured by placing mice in individual cages (20×15×15 cm) lined with wire mesh. A "climbing index", i.e., the percentage of time spent climbing during the 30-minute period following the first climb, was determined.

[4] = system: dopamine receptors; assay: Apomorphine-induced stereotypy; format: in vivo; conditions: 10 mg/kg pretreatment; apomorphine 1 mg/kg
From the text: Apomorphine-induced behavioral characteristics in the rodent are considered to involve dopamine agonist action on striatal and mesolimbic dopamine receptors. […] Among such induced behavioral characteristics are circling, climbing and stereotypy.

[5] = molecular target: T2, dopamine-sensitive adenylate cyclase (Rattus norvegicus, UniProt P18901); assay: Inhibition of activation of dopamine-sensitive adenylate cyclase in rat striatal homogenates; format: biochemical
Method: Washed tissue, including one specimen without NCA as a control, was then incubated with zero or 50 μM of dopamine in the presence of an excess of adenosine triphosphate for 2.5 minutes at 37° and the level of cyclic adenosine monophosphate in the incubation mixture with and without dopamine was assayed by a protein binding method. The increase in cyclic adenosine monophosphate levels due to the dopamine was estimated for all conditions.

[6] = system: dopamine receptors; assay: Circling/asymmetry in rats after unilateral intrastriatal injection and apomorphine challenge; format: in vivo, rat
Method: A further behavioral model utilized rats (male, Sprague-Dawley, 300±25 g). […] Bilateral guide cannulae were chronically implanted in the rats, using standard stereotaxic techniques, to allow drug/vehicle injection at the center of the caudate-putamen complex (Ant. 8.0, Lat. +3.0, Vert. +1.5, De Groot, 1959). Fourteen days after cannulation, the animals were manually restrained and the drug in a solvent vehicle was injected in a volume of 4 μliters (1 μliter/min) into the right and left striata, respectively. The 4 μliter contained dosages of 10 μg or 40 μg of the drug.
The resting asymmetry was particularly evident when the animals were disturbed and was also noted two and five days after the injection of the (-)N-(2-chloroethyl)norapomorphine. By the seventh day the ipsilateral asymmetry was variable and was not apparent by the fourteenth day.
Again, as in the circling experiments with the mice, it was apparent that the dopamine inhibitory actions of the drug endured for 2 to 4 days. The recovery of the behavioral response possibly reflects the resynthesis of dopamine receptors.

[7] = system: striatal dopamine receptors; assay: Apomorphine-induced circling in unilateral striatectomized mice; format: in vivo
Method: Among such induced behavioral characteristics are circling, climbing and stereotypy.
Male albino mice in the weight range of 35-40 grams were used in the determination of circling behavior. The mice were prepared for circling experiments using standard stereotaxic techniques to place unilateral electrolesions in the right caudate-putamen (1.0 mm anterior to bregma, 2.0 mm lateral and 3.5 mm below the skull surface, 1.5 mA/15 s). […] Those mice circling less than 6 revolutions every 2 minutes were excluded from subsequent studies.

[8] = molecular target: T2, dopamine-sensitive adenylate cyclase; conditions: Walton et al., Eur. J. Pharmacol. 52: 231 (1978); cited from earlier work

T2 sequence (P18901 whole entry): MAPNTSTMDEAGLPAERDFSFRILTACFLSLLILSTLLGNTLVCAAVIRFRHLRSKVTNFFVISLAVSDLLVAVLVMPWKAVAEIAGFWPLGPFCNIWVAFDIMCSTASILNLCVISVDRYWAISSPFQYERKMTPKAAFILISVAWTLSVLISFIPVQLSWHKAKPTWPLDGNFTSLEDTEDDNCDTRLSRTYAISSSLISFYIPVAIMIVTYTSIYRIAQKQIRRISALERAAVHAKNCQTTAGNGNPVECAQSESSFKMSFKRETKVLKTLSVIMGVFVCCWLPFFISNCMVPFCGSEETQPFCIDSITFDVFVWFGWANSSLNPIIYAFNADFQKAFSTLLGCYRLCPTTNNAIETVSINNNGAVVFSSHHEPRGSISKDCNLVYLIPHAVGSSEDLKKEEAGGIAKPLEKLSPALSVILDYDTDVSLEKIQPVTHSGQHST
T2 sequence (Q04400 whole entry partner): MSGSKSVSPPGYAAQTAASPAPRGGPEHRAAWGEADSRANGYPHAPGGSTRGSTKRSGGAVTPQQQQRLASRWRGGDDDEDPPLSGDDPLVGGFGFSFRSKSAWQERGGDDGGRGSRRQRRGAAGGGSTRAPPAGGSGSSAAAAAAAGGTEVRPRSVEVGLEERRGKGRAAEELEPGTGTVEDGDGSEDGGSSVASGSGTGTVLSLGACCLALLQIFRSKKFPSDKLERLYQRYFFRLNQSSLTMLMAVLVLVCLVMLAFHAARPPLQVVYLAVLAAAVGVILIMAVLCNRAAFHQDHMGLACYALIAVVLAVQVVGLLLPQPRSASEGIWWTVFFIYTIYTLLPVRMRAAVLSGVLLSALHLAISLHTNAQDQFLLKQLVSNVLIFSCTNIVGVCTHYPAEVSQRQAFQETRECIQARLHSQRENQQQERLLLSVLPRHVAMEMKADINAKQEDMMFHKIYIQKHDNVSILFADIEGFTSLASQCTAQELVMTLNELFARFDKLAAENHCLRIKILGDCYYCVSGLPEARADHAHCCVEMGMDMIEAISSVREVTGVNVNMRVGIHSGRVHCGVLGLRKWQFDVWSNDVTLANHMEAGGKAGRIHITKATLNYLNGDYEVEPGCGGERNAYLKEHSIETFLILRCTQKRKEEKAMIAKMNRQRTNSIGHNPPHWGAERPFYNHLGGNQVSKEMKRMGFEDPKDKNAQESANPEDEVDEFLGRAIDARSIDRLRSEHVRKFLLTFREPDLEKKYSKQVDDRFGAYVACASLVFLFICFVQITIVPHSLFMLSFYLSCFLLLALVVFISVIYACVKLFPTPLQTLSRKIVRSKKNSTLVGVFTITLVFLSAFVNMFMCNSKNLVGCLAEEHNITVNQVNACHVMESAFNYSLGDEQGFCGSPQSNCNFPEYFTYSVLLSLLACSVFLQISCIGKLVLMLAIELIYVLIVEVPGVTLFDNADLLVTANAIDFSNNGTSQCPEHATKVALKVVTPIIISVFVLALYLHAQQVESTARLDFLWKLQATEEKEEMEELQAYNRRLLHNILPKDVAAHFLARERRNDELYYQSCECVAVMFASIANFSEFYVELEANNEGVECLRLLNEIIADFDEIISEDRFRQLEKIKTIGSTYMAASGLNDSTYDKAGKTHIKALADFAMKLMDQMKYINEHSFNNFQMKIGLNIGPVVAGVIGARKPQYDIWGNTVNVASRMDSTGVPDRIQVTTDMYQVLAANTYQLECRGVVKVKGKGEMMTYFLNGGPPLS
T1 sequence (P61169 whole entry): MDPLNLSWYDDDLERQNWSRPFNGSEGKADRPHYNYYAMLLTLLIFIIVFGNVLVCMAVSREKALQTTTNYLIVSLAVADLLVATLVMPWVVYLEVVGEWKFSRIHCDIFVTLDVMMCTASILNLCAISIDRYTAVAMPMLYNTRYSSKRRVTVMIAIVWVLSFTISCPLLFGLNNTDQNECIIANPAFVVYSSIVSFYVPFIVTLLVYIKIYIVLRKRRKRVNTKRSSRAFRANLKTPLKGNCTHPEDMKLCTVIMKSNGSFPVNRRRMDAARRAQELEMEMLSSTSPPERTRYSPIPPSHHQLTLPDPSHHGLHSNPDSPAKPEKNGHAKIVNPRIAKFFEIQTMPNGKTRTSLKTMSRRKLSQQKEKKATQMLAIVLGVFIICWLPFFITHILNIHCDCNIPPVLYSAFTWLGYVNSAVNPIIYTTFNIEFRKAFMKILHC

SMILES: CCCN1CCc2cccc3c2C1Cc1ccc(O)c(O)c1-3 (single isomer, unassigned) [^3 H-NPA, ^3 H-N-n-propylnorapomorphine, reference compound]
- Bmax [1]: 190 fmol/mg protein
- density of ^3 H-NPA binding sites [2]: approximately 180 fmol/mg protein

SMILES: COc1ccc2c(c1OC(C)=O)-c1cc(O)cc3c1C(C2)N(C(=O)CN(CCCl)CCCl)CC3 (centres unmarked) [6-[2-bis(2-chloroethyl)amino]acetyl-11-acetoxy-2-hydroxy-10-methoxy-apoporphine hemihydrate, reference compound]
- effect on apomorphine climbing ([3]; four-hour pretreatment): failed to modify apomorphine climbing

SMILES: COc1ccc2c(c1O)-c1cccc3c1[C@@H](C2)N(CCCl)CC3 [(-)N-(2-chloroethyl)norapocodiene.HCl, reference compound]
- effect on apomorphine climbing ([3]; four-hour pretreatment): failed to modify apomorphine climbing

SMILES: OCCN1CCc2cccc3c2[C@H]1Cc1ccc(O)c(O)c1-3 [(-)N-(2-hydroxyethyl)norapomorphine.HCl]
- reversal of inhibition of ^3 H-NPA binding by washing of membranes ([1]; 5×10^-7 M): reversed
- effect on apomorphine climbing ([3]; 90-minute pretreatment): failed to modify apomorphine climbing

SMILES: Oc1ccc2c(c1O)-c1cccc3c1[C@@H](C2)N(CCCl)CC3 [NCA]
- IC50 [1]: 1800 nM
- reversal of inhibition of ^3 H-NPA binding by washing of membranes ([1]; 5×10^-6 M): not reversed
- reversal of prevention of ^3 H-NPA binding by washing ([1]; NCA 10^-5 M, repeated washing): not reversed by repeated washing
- inhibition of ^3 H-NPA binding in the presence of blocking agents ([1]; high concentrations of phentolamine and propranolol, NCA 3×10^-5 M): also apparent
- effect on submaximal stereotypic effect of apomorphine (repetitive sniffing, periodic biting, continuous biting) [4]: failed to modify
- percent dopamine stimulation of cAMP production at 10 µM ([5]; 10 min, NCA 10 μM, 10 min 37° C. preincubation, washed, 50 μM dopamine): 84%
- percent dopamine stimulation of cAMP production at 30 µM ([5]; 10 min, NCA 30 μM, 10 min 37° C. preincubation, washed, 50 μM dopamine): 44%
- percent dopamine stimulation of cAMP production at 75 µM ([5]; 10 min, NCA 75 μM, 10 min 37° C. preincubation, washed, 50 μM dopamine): 8%
- inhibition at 10 µM ([5]; NCA 10 μM): 16%
- inhibition at 30 µM ([5]; NCA 30 μM): 56%
- inhibition at 75 µM ([5]; NCA 75 μM): 92%
- circling on apomorphine challenge ([6]; 40 μg intrastriatal, apomorphine 0.5 mg/kg s.c., four hours and two days, to a lesser extent 5 days after administration): precipitated a clear circling behavior
- ipsilateral asymmetry/circling movements after unilateral injection into the caudate-putamen ([6]; 10 and 40 μg intrastriatal): induced ipsilateral asymmetry/circling movements within an hour
- resting ipsilateral asymmetry ([6]; fourteenth day): not apparent
- resting ipsilateral asymmetry ([6]; seventh day): variable
- resting ipsilateral asymmetry ([6]; two and five days after injection): noted
- inhibition of apomorphine-induced circling ([7]; 1.0 mg/kg s.c., apomorphine 0.5 mg/kg s.c., 4 hours to 7 days after administration): essentially no inhibition
- reduction in circling ([7]; higher dosage levels (2.0 or 4.0 mg/kg s.c.), after 2 days): still apparent
- reduction in circling ([7]; highest dosage level (4.0 mg/kg s.c.), after 5 days): 39%
- reduction of number of ^3 H-NPA binding sites ([2]; 40 μg NCA intrastriatal, day 2): approximately 50%
- number of sites available for ^3 H-NPA binding ([2]; 40 μg NCA intrastriatal, days 7 and 14): returned to control values
- effect on apomorphine climbing index ([3]; 10 mg/kg i.p. pretreatment): reduced this index
- effect on apomorphine climbing index ([3]; 20 mg/kg i.p. pretreatment): greatly reduced
- duration of reduction of climbing index ([3]; after i.p. administration): up to between four and five days

SMILES: CN1CCc2cccc3c2[C@H]1Cc1ccc(O)c(O)c1-3 [apomorphine]
- circling behavior ([7]; 0.25-1 mg/kg apomorphine, dose-dependent): 2-10 revolutions every 12 minutes

SMILES: CC(COc1ccccc1)N(CCCl)Cc1ccccc1 (centres unmarked) [phenoxybenzamine]
- action on dopamine-sensitive adenylate cyclase [8]: irreversible blocking action

— patent US4353912A, “N-Haloalkyl nor apomorphines and method of inactivating dopamine receptor sites and enhancing dopaminergic activity therewith” (Northeastern University, priority 1980, dated 1982)
